Laboratory results reported in ChEMBL document CHEMBL1201862, “PubChem BioAssay data set” (2004).
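Cells were grown in 96-well plates and exposed to each compound for 48 hours at five concentrations; endpoints were interpolated linearly between bracketing concentrations, or set to the highest concentration if not reached. At the GI50, growth is halved.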 The source made the active and inactive calls. Rule as the data show it: active = GI50 up to about 1.1 µM and inactive = higher.

Assays:
Experiment in all cases: inhibition of tumour cell growth, NCI panel, 48 h
HL-60 = system: HL-60
SK-MEL-28 = system: SK-MEL-28
HOP-92 = system: HOP-92
DMS-273 = system: DMS-273
U-251 = system: U-251
SK-MEL-2 = system: SK-MEL-2
UO-31 = system: UO-31
ACHN = system: ACHN
LXFL 529 = system: LXFL 529
TK-10 = system: TK-10
SNB-75 = system: SNB-75
Malme-3M = system: Malme-3M
M19-MEL = system: M19-MEL
KM-20L2 = system: KM-20L2
NCI-H226 = system: NCI-H226
IGROV-1 = system: IGROV-1
786-0 = system: 786-0
M14 = system: M14
RXF 393 = system: RXF 393
CAKI-1 = system: CAKI-1
SW-620 = system: SW-620
HCT-15 = system: HCT-15
SNB-19 = system: SNB-19
OVCAR-5 = system: OVCAR-5
NCI-H23 = system: NCI-H23
RXF 631 = system: RXF 631
DLD-1 = system: DLD-1
KM12 = system: KM12
UACC-257 = system: UACC-257
SN12C = system: SN12C
OVCAR-8 = system: OVCAR-8
HT-29 = system: HT-29
EKVX = system: EKVX
MOLT-4 = system: MOLT-4
SK-OV-3 = system: SK-OV-3
OVCAR-3 = system: OVCAR-3
HCC 2998 = system: HCC 2998
NCI-H460 = system: NCI-H460
DMS-114 = system: DMS-114
COLO 205 = system: COLO 205
A549 = system: A549
OVCAR-4 = system: OVCAR-4
NCI-H522 = system: NCI-H522
SK-MEL-5 = system: SK-MEL-5
UACC-62 = system: UACC-62
A498 = system: A498
XF498 = system: XF498
SF-539 = system: SF-539
HCT-116 = system: HCT-116
HOP-18 = system: HOP-18
SNB-78 = system: SNB-78
SF-268 = system: SF-268
SF-295 = system: SF-295
HOP-62 = system: HOP-62
CCRF-CEM = system: CCRF-CEM
K562 = system: K562
SR = system: SR
RPMI-8226 = system: RPMI-8226
LOX IMVI = system: LOX IMVI

SMILES: CCN1CCC(O)(/C=C/c2ccccc2)C(C(=O)/C=C/c2ccccc2)C1 (stereo not drawn)
- GI50 (HL-60): 1.64 µM (inactive)
- GI50 (SK-MEL-28): 1.89 µM (inactive)
- GI50 (HOP-92): 2.64 µM (inactive)
- GI50 (DMS-273): 1.68 µM (inactive)
- GI50 (U-251): 2.15 µM (inactive)
- GI50 (SK-MEL-2): 2.65 µM (inactive)
- GI50 (UO-31): 10.1 µM (inactive)
- GI50 (ACHN): 1.72 µM (inactive)
- GI50 (LXFL 529): 1.87 µM (inactive)
- GI50 (TK-10): 2.61 µM (inactive)
- GI50 (SNB-75): 6.4 µM (inactive)
- GI50 (Malme-3M): 2.26 µM (inactive)
- GI50 (M19-MEL): 1.99 µM (inactive)
- GI50 (KM-20L2): 2.62 µM (inactive)
- GI50 (NCI-H226): 3.02 µM (inactive)
- GI50 (IGROV-1): 1.85 µM (inactive)
- GI50 (786-0): 1.75 µM (inactive)
- GI50 (M14): 2.09 µM (inactive)
- GI50 (RXF 393): 1.67 µM (inactive)
- GI50 (CAKI-1): 2.71 µM (inactive)
- GI50 (SW-620): 1.69 µM (inactive)
- GI50 (HCT-15): 1.87 µM
- GI50 (SNB-19): 9.98 µM (inactive)
- GI50 (OVCAR-5): 3.06 µM (inactive)
- GI50 (NCI-H23): 2.93 µM (inactive)
- GI50 (RXF 631): 4.1 µM (inactive)
- GI50 (DLD-1): 2.08 µM (inactive)
- GI50 (KM12): 1.8 µM (inactive)
- GI50 (UACC-257): 1.98 µM (inactive)
- GI50 (SN12C): 1.79 µM (inactive)
- GI50 (OVCAR-8): 1.89 µM (inactive)
- GI50 (HT-29): 1.76 µM (inactive)
- GI50 (EKVX): 3.33 µM (inactive)
- GI50 (MOLT-4): 2.21 µM (inactive)
- GI50 (SK-OV-3): 7.85 µM (inactive)
- GI50 (OVCAR-3): 3.1 µM (inactive)
- GI50 (HCC 2998): 1.96 µM (inactive)
- GI50 (NCI-H460): 1.95 µM (inactive)
- GI50 (DMS-114): 2.08 µM (inactive)
- GI50 (COLO 205): 1.77 µM (inactive)
- GI50 (A549): 4.86 µM (inactive)
- GI50 (OVCAR-4): 3.27 µM (inactive)
- GI50 (NCI-H522): 1.73 µM (inactive)
- GI50 (SK-MEL-5): 3.22 µM (inactive)
- GI50 (UACC-62): 1.71 µM (inactive)
- GI50 (A498): 6.21 µM (inactive)
- GI50 (XF498): 5.65 µM (inactive)
- GI50 (SF-539): 1.91 µM (inactive)
- GI50 (HCT-116): 1.63 µM (inactive)
- GI50 (HOP-18): 5.64 µM (inactive)
- GI50 (SNB-78): 3.33 µM (inactive)
- GI50 (SF-268): 2.54 µM (inactive)
- GI50 (SF-295): 2.96 µM (inactive)
- GI50 (HOP-62): 13.9 µM (inactive)

SMILES: CC1=C(C(=O)Nc2ccccc2C)C(c2ccc(Cl)c(Cl)c2)C(C(=O)Nc2ccccc2C)=C(C)N1
- GI50 (HL-60): 15.1 µM (inactive)
- GI50 (SK-MEL-28): 25.8 µM (inactive)
- GI50 (HOP-92): 14.4 µM (inactive)
- GI50 (DMS-273): 16.7 µM (inactive)
- GI50 (U-251): 19.3 µM (inactive)
- GI50 (SK-MEL-2): 16.1 µM (inactive)
- GI50 (UO-31): 25.7 µM (inactive)
- GI50 (ACHN): 27.3 µM (inactive)
- GI50 (LXFL 529): 14.4 µM (inactive)
- GI50 (TK-10): 21.7 µM (inactive)
- GI50 (CCRF-CEM): 22.7 µM (inactive)
- GI50 (SNB-75): 36.5 µM (inactive)
- GI50 (Malme-3M): 22.5 µM (inactive)
- GI50 (M19-MEL): 19.7 µM (inactive)
- GI50 (K562): 20.3 µM (inactive)
- GI50 (KM-20L2): 16.1 µM (inactive)
- GI50 (NCI-H226): 15.2 µM (inactive)
- GI50 (IGROV-1): 19 µM (inactive)
- GI50 (786-0): 24.7 µM (inactive)
- GI50 (M14): 16.6 µM (inactive)
- GI50 (RXF 393): 20.1 µM (inactive)
- GI50 (CAKI-1): 26.7 µM (inactive)
- GI50 (SW-620): 31.6 µM (inactive)
- GI50 (HCT-15): 17.2 µM
- GI50 (SNB-19): 44.2 µM (inactive)
- GI50 (OVCAR-5): 23.1 µM (inactive)
- GI50 (NCI-H23): 19.8 µM (inactive)
- GI50 (RXF 631): 19.8 µM (inactive)
- GI50 (DLD-1): 27.9 µM (inactive)
- GI50 (KM12): 26.2 µM (inactive)
- GI50 (UACC-257): 19.9 µM (inactive)
- GI50 (SN12C): 18.7 µM (inactive)
- GI50 (OVCAR-8): 37.2 µM (inactive)
- GI50 (HT-29): 20 µM (inactive)
- GI50 (SR): 12.7 µM (inactive)
- GI50 (EKVX): 34.1 µM (inactive)
- GI50 (MOLT-4): 12.6 µM (inactive)
- GI50 (SK-OV-3): 22.9 µM (inactive)
- GI50 (OVCAR-3): 17.6 µM (inactive)
- GI50 (HCC 2998): 25.6 µM (inactive)
- GI50 (NCI-H460): 15.8 µM (inactive)
- GI50 (DMS-114): 17.4 µM (inactive)
- GI50 (COLO 205): 16.4 µM (inactive)
- GI50 (A549): 24.2 µM (inactive)
- GI50 (OVCAR-4): 16.4 µM (inactive)
- GI50 (NCI-H522): 14.5 µM (inactive)
- GI50 (SK-MEL-5): 17.5 µM (inactive)
- GI50 (RPMI-8226): 16.1 µM (inactive)
- GI50 (UACC-62): 17.4 µM (inactive)
- GI50 (A498): 27.5 µM (inactive)
- GI50 (XF498): 26.2 µM (inactive)
- GI50 (SF-539): 25.5 µM (inactive)
- GI50 (HCT-116): 16 µM (inactive)
- GI50 (LOX IMVI): 20.9 µM (inactive)
- GI50 (HOP-18): 22.9 µM (inactive)
- GI50 (SNB-78): 29.4 µM (inactive)
- GI50 (SF-268): 20.3 µM (inactive)
- GI50 (SF-295): 21.6 µM (inactive)
- GI50 (HOP-62): 28.6 µM (inactive)
